Measurements published in patent publication US20040171543A1, “Matrix metalloproteinase inhibitors and methods for identification of lead compounds” (priority 2002, published 2004).
Where a name gives a salt, the structure may show the parent alone. Read-outs that look alike come from different tables or passages of the source.

Legend:
Format in all cases: biochemical
[1] = molecular target: T1, MMP-13 catalytic domain (MMP-13CD) (Homo sapiens, UniProt P45452); test: Fluorigenic peptide-1 substrate based assay, MMP-13CD, with/without AcNHOH; settings: for IC50 Ratio (±): IC50 with AcNHOH divided by IC50 without; for IC50: FP1 substrate
T1 construct: The catalytic domain of the MMP-13 enzyme, namely matrix metalloproteinase-13 catalytic domain (“MMP-13CD”)
Method: The catalytic domain of the MMP-13 enzyme, namely matrix metalloproteinase-13 catalytic domain (“MMP-13CD”), rather than the corresponding full-length enzyme, MMP-13 was used in such assay.
50 mM HEPES buffer (pH 7.0)
2% DMSO (with or without inhibitor test compound)
1. Dispensed 2 μL inhibitor test sample (in 100% DMSO) into well.
2. Added 88 μL assay mixture and mixed well, avoiding bubbles.
3. Initiated reactions with 10 μL of 5 nM MMP-13CD; mixed well, avoiding bubbles.
4. Immediately measured the kinetics of the reactions at room temperature.
Alternatively, an endpoint read can also be used to determine reaction velocity provided the initial fluorescence of the solution, as recorded before addition of enzyme, is subtracted from the final fluorescence of the reaction mixture.

MMP-14 = MMP-14 (Homo sapiens, UniProt P50281); test: TPL (thiopeptolide) assay, MMP-14
From the text: (§1) The assays that can be used to evaluate the biological activity of various compounds for inhibiting MMPs are well-known and routinely used by those skilled in the art. They measure the amount by which a test compound reduces the hydrolysis of a thiopeptolide substrate caused by a matrix metalloproteinase enzyme. Such assays are described in detail by Ye et al., in Biochemistry, 1992;31(45): 11231-11235, which is incorporated herein by reference.
(§2) Thiopeptolide substrates show virtually no decomposition or hydrolysis in the absence of a matrix metalloproteinase enzyme. A typical thiopeptolide substrate commonly utilized for assays is Ac-Pro-Leu-Gly-thioester-Leu-Leu-Gly-OEt. A 100 μL assay mixture will contain 50 mM of 2-morpholinoethane sulfonic acid monohydrate (MES, pH 6.0) 10 mM CaCl2, 100 μM thiopeptolide substrate, and 1 mM 5,5′-dithio-bis-(2-nitro-benzoic acid) (DTNB). The thiopeptolide substrate concentration is varied from 10 to 800 μM to obtain Km and Kcat values. The change in absorbance at […] is monitored on a Thermo Max microplate reader (Molecular Devices, Menlo Park, Calif.) at room temperature (22° C.). The calculation of the amount of hydrolysis of the thiopeptolide substrate is based on E412=13600 m^−1 cm^−1 for the DTNB-derived product 3-carboxy-4-nitrothiophenoxide. Assays are carried out with and without matrix metalloproteinase inhibitor compounds, and the amount of hydrolysis is compared for a determination of inhibitory activity of the test compounds.

MMP-2 = molecular target: T2, MMP-2 (Homo sapiens, UniProt P08253); test: TPL (thiopeptolide) assay, MMP-2
T2 sequence (P08253 110-660): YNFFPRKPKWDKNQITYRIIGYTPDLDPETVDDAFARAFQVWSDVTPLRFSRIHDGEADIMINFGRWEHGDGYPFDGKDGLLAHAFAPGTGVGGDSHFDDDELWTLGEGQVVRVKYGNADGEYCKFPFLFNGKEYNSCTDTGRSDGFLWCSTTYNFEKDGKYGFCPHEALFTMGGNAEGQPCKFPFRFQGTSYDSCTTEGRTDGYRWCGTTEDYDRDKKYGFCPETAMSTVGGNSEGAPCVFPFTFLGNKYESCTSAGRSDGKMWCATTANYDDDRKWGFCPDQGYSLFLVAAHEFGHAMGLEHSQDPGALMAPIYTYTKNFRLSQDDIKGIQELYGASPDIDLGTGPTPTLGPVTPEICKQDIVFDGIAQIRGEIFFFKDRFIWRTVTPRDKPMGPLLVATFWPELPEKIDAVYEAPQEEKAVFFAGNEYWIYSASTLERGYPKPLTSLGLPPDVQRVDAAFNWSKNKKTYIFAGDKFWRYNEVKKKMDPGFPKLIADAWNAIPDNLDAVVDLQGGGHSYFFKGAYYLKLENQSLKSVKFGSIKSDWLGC
From the text: as §1, §2

MMP-9 = MMP-9 (Homo sapiens, UniProt P14780); test: TPL (thiopeptolide) assay, MMP-9
Sequence of MMP-9 (P14780 94-707): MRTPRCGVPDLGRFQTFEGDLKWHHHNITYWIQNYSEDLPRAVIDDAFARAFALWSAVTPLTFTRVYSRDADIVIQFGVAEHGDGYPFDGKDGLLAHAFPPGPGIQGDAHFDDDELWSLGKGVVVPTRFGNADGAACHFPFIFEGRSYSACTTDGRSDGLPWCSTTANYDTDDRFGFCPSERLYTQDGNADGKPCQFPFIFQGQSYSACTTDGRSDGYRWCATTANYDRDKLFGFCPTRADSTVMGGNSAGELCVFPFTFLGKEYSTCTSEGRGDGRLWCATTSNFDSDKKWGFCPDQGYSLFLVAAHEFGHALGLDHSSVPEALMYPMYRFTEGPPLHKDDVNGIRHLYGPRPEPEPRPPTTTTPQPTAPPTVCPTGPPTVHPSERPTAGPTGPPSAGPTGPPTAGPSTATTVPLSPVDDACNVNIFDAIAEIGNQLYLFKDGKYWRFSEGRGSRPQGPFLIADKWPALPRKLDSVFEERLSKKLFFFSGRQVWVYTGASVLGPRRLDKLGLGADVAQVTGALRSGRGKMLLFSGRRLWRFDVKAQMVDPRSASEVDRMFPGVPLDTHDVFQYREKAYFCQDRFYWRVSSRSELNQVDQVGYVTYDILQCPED
From the text: as §1, §2

MMP-3 = MMP-3 (Homo sapiens, UniProt P08254); test: TPL (thiopeptolide) assay, MMP-3
Sequence of MMP-3 (P08254 100-477): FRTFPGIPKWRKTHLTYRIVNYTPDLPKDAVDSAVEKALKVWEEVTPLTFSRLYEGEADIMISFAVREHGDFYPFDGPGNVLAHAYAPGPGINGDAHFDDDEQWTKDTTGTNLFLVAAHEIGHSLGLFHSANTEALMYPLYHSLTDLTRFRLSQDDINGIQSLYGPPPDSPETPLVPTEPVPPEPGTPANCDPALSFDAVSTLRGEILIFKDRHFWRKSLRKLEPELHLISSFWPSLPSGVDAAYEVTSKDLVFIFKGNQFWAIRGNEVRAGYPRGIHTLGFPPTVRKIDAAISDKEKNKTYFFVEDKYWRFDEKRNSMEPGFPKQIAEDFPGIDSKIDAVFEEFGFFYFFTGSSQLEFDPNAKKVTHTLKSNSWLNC
From the text: as §1, §2

MMP-12 = MMP-12 (Homo sapiens, UniProt P39900); test: TPL (thiopeptolide) assay, MMP-12 (without and with AH)
Sequence of MMP-12 (P39900 106-470): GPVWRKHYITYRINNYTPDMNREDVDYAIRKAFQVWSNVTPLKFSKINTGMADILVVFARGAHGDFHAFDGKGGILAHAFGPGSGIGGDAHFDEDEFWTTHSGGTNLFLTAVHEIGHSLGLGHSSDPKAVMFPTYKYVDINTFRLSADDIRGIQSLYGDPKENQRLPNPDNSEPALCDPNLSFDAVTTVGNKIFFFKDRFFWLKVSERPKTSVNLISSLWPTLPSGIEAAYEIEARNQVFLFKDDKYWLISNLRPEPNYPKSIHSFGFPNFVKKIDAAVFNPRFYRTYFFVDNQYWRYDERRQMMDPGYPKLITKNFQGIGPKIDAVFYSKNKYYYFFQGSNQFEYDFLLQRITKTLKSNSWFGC
From the text: as §1, §2
Although ligand size is not critical, a bulky ligand will block more binding sites of the MMP than a smaller ligand, and may thus prevent potential inhibitors that bind close to, but not at, the functional metal cation from being identified. Suitable ligands are therefore low molecular weight molecules, e.g. acetohydroxamic acid (CH3CONHOH) whose use is preferred.

MMP-1 = molecular target: T3, MMP-1 (Homo sapiens, UniProt P03956); test: TPL (thiopeptolide) assay, MMP-1
T3 sequence (P03956 100-469): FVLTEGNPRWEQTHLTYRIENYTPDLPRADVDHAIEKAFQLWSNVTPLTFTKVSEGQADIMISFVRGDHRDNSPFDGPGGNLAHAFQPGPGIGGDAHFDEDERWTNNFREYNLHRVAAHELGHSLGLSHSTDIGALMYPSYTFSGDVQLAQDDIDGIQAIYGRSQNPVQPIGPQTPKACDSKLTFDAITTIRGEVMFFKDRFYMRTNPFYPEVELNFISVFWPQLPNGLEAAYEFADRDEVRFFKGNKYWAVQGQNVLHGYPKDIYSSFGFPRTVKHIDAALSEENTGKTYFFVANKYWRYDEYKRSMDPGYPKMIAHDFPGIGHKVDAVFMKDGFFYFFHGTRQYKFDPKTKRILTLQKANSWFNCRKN
From the text: as §1, §2

MMP-13 = MMP-13 (Homo sapiens, UniProt P45452); test: TPL (thiopeptolide) assay, MMP-13 (without and with AH)
Method: Thiopeptolide substrates show virtually no decomposition or hydrolysis in the absence of a matrix metalloproteinase enzyme. A typical thiopeptolide substrate commonly utilized for assays is Ac-Pro-Leu-Gly-thioester-Leu-Leu-Gly-OEt. A 100 μL assay mixture will contain 50 mM of 2-morpholinoethane sulfonic acid monohydrate (MES, pH 6.0) 10 mM CaCl2, 100 μM thiopeptolide substrate, and 1 mM 5,5′-dithio-bis-(2-nitro-benzoic acid) (DTNB). […] The change in absorbance at 405 mm is monitored on a Thermo Max microplate reader (Molecular Devices, Menlo Park, Calif.) at room temperature (22° C.). […] Assays are carried out with and without matrix metalloproteinase inhibitor compounds, and the amount of hydrolysis is compared for a determination of inhibitory activity of the test compounds.

MMP-7 = molecular target: T4, MMP-7 (Homo sapiens, UniProt P09237); test: TPL (thiopeptolide) assay, MMP-7
T4 sequence (P09237 95-267): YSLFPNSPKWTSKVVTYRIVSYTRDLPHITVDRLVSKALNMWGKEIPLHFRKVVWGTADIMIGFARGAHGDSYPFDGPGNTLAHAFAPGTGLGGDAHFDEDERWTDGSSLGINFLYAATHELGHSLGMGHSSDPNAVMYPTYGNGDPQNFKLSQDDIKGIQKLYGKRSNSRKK
From the text: as §1
as §2, with “Assays are carried out with and without matrix metalloproteinase inhibitor compounds, and the amount of hydrolysis is compared for a determination of inhibitory activity of the test compounds.” left out

MMP-8 = MMP-8 (Homo sapiens, UniProt P22894); test: TPL (thiopeptolide) assay, MMP-8
Sequence of MMP-8 (P22894 101-467): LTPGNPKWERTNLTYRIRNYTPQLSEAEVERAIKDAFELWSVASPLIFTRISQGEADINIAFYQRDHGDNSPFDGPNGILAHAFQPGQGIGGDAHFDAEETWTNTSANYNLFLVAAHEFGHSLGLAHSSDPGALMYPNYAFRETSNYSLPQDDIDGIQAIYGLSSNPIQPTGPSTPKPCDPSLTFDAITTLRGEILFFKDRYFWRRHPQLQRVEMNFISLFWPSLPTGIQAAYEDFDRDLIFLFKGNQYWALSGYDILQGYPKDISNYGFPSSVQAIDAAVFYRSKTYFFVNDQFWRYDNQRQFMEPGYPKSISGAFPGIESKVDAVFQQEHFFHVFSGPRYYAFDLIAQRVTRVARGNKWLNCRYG
From the text: as §1
as §2, with “Assays are carried out with and without matrix metalloproteinase inhibitor compounds, and the amount of hydrolysis is compared for a determination of inhibitory activity of the test compounds.” left out

[2] = TPL assay, without AH, read-out: IC50 MMP-12
[3] = TPL assay, without AH, read-out: IC50 MMP-13
[4] = in presence of acetohydroxamic acid (+AH), read-out: IC50 MMP12 (+AH)

SMILES | IC50 (MMP-14; read-out: IC50 MMP-14) [nM] | IC50 (MMP-2; read-out: IC50 MMP-2) [nM] | IC50 (MMP-9; read-out: IC50 MMP-9) [nM] | IC50 (MMP-3; read-out: IC50 MMP-3) [nM] | IC50 (MMP-12; [2]) [nM] | IC50 (MMP-1; read-out: IC50 MMP-1) [nM] | IC50 (MMP-13; [3]) [nM] | IC50 (MMP-12; [4]) [nM] | other results
COc1ccc(C(=O)NCc2cccnc2)cc1C(=O)NCc1cccnc1 [Entry 7] |  |  |  |  |  |  |  |  | IC50 Ratio (±) [1]: 0.41
O=C(NC(=S)NCc1cc(-c2ccccc2)no1)c1ccccc1 [Entry 10] |  |  |  |  |  |  |  |  | IC50 ([1]; 0 mM AcNHOH, read-out: Without AcNHOH IC50): 2300 nM; IC50 ([1]; 15 mM AcNHOH (1 Kd), read-out: With AcNHOH IC50): 200 nM; IC50 Ratio (±) [1]: 0.08
COc1ccc(CC#Cc2ccc3ncn(Cc4ccc(C(=O)O)cc4)c(=O)c3c2)cc1 [Example 1, 4-{6-[3-(4-Methoxy-phenyl)-prop-1-ynyl]-4-oxo-4H-quinazolin-3-ylmethyl}-benzoic acid] | > 100000 | > 100000 | > 30000 | 220 | > 30000 | > 100000 |  |  | 
COc1ccc(CC#Cc2ccc3c(c2)c(=O)n(Cc2ccc(C(=O)O)cc2)c(=O)n3C)cc1 [Example 2, 4-{6-[3-(4-Methoxy-phenyl)-prop-1-ynyl]-1-methyl-2,4-dioxo-1,4-dihydro-2H-quinazolin-3-ylmethyl}-benzoic acid] | > 100000 | > 100000 | > 30000 | 830 | > 100000 | > 100000 | 0.18 |  | 
O=C(OCc1ccccc1)c1ccc2[nH]c(=O)n(Cc3ccccc3)c(=O)c2c1 [Example 4, 3-Benzyl-2,4-dioxo-1,2,3,4-tetrahydro-quinazoline-6-carboxylic acid benzyl ester] |  |  |  |  |  |  |  |  | IC50 (MMP-14; unit inferred, read-out: Activities measured by TPL assays, MMP-14): > 100000 nM; IC50 (MMP-2; unit inferred, read-out: Activities measured by TPL assays, MMP-2): > 100000 nM; IC50 (MMP-9; unit inferred, read-out: Activities measured by TPL assays, MMP-9): > 100000 nM; IC50 (MMP-13; TPL assay, unit inferred, read-out: Activities measured by TPL assays, MMP-13): 29.5 nM; IC50 (MMP-7; unit inferred, read-out: Activities measured by TPL assays, MMP-7): > 30000 nM; IC50 (MMP-3; unit inferred, read-out: Activities measured by TPL assays, MMP-3): > 30000 nM; IC50 (MMP-1; unit inferred, read-out: Activities measured by TPL assays, MMP-1): > 30000 nM

Now from value to compound, other results behind:

IC50 (MMP-14; read-out: IC50 MMP-14) [nM] | IC50 (MMP-2; read-out: IC50 MMP-2) [nM] | IC50 (MMP-9; read-out: IC50 MMP-9) [nM] | IC50 (MMP-3; read-out: IC50 MMP-3) [nM] | IC50 (MMP-12; [2]) [nM] | IC50 (MMP-1; read-out: IC50 MMP-1) [nM] | IC50 (MMP-13; [3]) [nM] | IC50 (MMP-12; [4]) [nM] | SMILES | other results
> 100000 | > 100000 | > 100000 | 160 | 3400 | > 100000 | 1.2 |  | COc1cccc(COC(=O)c2cc3c(=O)n(Cc4ccc(-c5nn[nH]n5)cc4)c(=O)[nH]c3s2)c1 [Example 3, 2,4-Dioxo-3-[4-(2H-tetrazol-5-yl)-benzyl]-1,2,3,4-tetrahydro-thieno[2,3-d]pyrimidine-6-carboxylic acid 3-methoxy-benzyl ester] | 
> 30000 | > 30000 | > 30000 | > 30000 | > 400 | > 30000 | 0.14 | 12 | O=C(O)c1ccc(CNC(=O)c2cc(-c3ccc(OC(F)(F)F)cc3)cs2)cc1 [Example 5, 4-({[4-(4-Trifluoromethoxyphenyl)thien-2-yl]carboxamido}methyl) benzoic acid] | IC50 (MMP-8): > 30000 nM; IC50 (MMP-13; in presence of acetohydroxamic acid (+AH), read-out: IC50 MMP13 (+AH)): 63 nM; IC50 (MMP-7; read-out: IC50 MMP-7): > 30000 nM
 | > 390 | > 1400 | > 1700 | 14 | > 101000 |  | 4 | O=C(O)C[C@@H](NC(=O)c1cc(-c2ccc(-c3ccncc3)cc2)cs1)c1ccccc1 [Example 6, (2?)-3-({[4-1(pyridin-4-yl)phényl]-thièn-2-yl]carboxamido)(phényl)propanoic acid hydrochloride] | IC50 (MMP-8): > 980 nM; IC50 (MMP-13): 270 nM
 |  |  |  | 17000 |  | 3600 | 270 | CN1c2ccc(C3CN(Cc4ccccc4)C(=O)CO3)cc2CS1(=O)=O (centres unmarked) [Example 7, 4-Benzyl-6-(1-methyl-2,2-dioxo-2,3-dihydro-1H-2λ^6-benzo[c]isothiazol-5-yl)morpholin-3-one] | 
 |  |  |  | 570 |  | 1900 | 15 | O=C(NC[C@H]1CC[C@H](C(=O)O)CC1)c1cc(-c2ccc(-c3ccncc3)cc2)ns1 [Example 8, Trans 3-[4-(4-pyridyl)phenyl]-5-isothiazole carboxamido methyl-cyclohexane carboxylic acid, Potassium Salt] | 
